# Assay results: US20260109712A1, “RIFAMYCINS FOR NONTUBERCULOUS MYCOBACTERIA” (priority 2022, published 2026)
# Where two headings read alike, the source gives them in different places.
# Legend:
# [1] = system: M. abscessus subspecies abscessus; experiment: MIC, Table 9; type: cell-based, Mycobacterium abscessus; settings: for MIC: M. abscessus subspecies abscessus
# [2] = system: M. abscessus subspecies massilense; experiment: MIC, Table 9; type: cell-based, Mycobacterium abscessus; settings: for MIC: M. abscessus subspecies massilense
# [3] = system: M. chimaera CCUG 50989T; experiment: MIC, anti-mycobacterial profiling; type: cell-based, Mycobacterium chimaera; settings: for MIC: mean of two experiments
# [4] = system: M. chelonae; experiment: MIC, Table 9; type: cell-based, Mycobacterium chelonae
# [5] = system: M. fortuitum; experiment: MIC, Table 9; type: cell-based, Mycobacterium fortuitum
# [6] = system: M. abscessus ATCC 19977; experiment: MIC assay in 96-well plate format, wild-type strain; type: cell-based, Mycobacterium abscessus; settings: for MIC ratio: WT MIC/Δarr strain MIC
# Method in brief: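 Two-fold, ten-point dilutions in 7H9 with 2% DMSO; mid-log culture diluted to OD600=0.1 (1×10^7 CFU/mL). Incubated 3 days at 37 °C, shaking 110 RPM; growth = Day 3 minus Day 0 OD600, expressed as percentage of drug-free growth and plotted against concentration. Two biological replicates.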
# [7] = system: M. abscessus subsp. bolletii CCUG 50184T; experiment: MIC, anti-mycobacterial profiling; type: cell-based, Mycobacterium abscessus; settings: for MIC: mean of two experiments
# Protocol: (§1) MIC determination was carried out in 96-well plate format as previously described.^[13-14] 96-well plates were initially set up with 100 μL of 7H9 per well. For each compound, a ten-point two-fold dilution series starting at twice the desired highest concentration was dispensed onto the 96-well plates using a Tecan D300e Digital Dispenser, with the DMSO concentration normalized to 2%. M. abscessus culture grown to mid-log phase (OD600=0.4-0.6) was diluted to OD600=0.1 (1×10^7 CFU/mL). 100 μL of the resulting bacteria suspension was dispensed onto the 96-well plates containing compounds to give a final volume of 200 μL per well with an initial OD600=0.05 (5×10^6 CFU/mL) and final DMSO concentration of 1%. Final compound concentration ranges were typically 50-0.098 μM, 6.25-0.012 μM, 0.006-3.13 μM, or 0.003-1.56 μM. Untreated control wells are included on each plate that contain bacteria suspension and 1% DMSO. Plates were sealed with parafilm, stored in boxes with wet paper towels and incubated at 37° C. with shaking (110 RPM). Plates were incubated for 3 days. To determine growth, OD600 was measured using a Tecan Infinite M200 plate reader on Day 0 and Day 3. Two biological replicates were performed. Clarithromycin was included in each experiment as a positive control.
# (§2) For each well on the 96-well plate, bacterial growth was calculated by subtracting the Day 0 OD600 value from the Day 3 OD600 value. For each compound series, the bacterial growth values for the untreated control wells were averaged to give the average drug-free bacterial growth. For compound-containing wells, percentage growth was calculated by dividing their growth values by the average drug-free bacterial growth for the compound series and multiplying by 100. For each compound series, we plotted percentage growth versus compound concentration. By visual inspection of the dose-response curve, we determined the MIC of a compound as the compound concentrations that would result in 90% growth inhibition.
# (§3) The MIC data was determined using methods disclosed in Example 1.
# [8] = system: M. abscessus subsp. massiliense CCUG 48898T; experiment: MIC, anti-mycobacterial profiling; type: cell-based, Mycobacterium abscessus; settings: for MIC: mean of two experiments
# Protocol: as §1, §2, §3
# [9] = system: M. abscessus Bamboo; experiment: Broth MBC90 (bMBC90); type: cell-based, Mycobacterium abscessus; settings: broth, 5 days
# Source text: Broth MIC, broth MBC90 (bMBC90), and caseum surrogate MBC90 ([…]) of clinically used antibiotics and of novel ADP-ribosylation-resistant rifabutin analogs against M. abscessus Bamboo have been evaluated.
# [10] = system: M. simiae ATCC 25275; experiment: MIC, anti-mycobacterial profiling; type: cell-based, Mycobacterium simiae; settings: for MIC: mean of two experiments
# [11] = Plasma protein binding assay (rapid equilibrium dialysis); type: in vitro ADME
# Method in brief: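 Rapid equilibrium dialysis ran 4 h at 37° C (300 RPM) with compound-spiked plasma (10,000 ng/mL) on one side and PBS on the other. Each side was then mixed 1:1 […] to equalise matrix before LC-MS/MS quantification.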
# [12] = system: M. abscessus subspecies bolletii; experiment: MIC, Table 9; type: cell-based, Mycobacterium abscessus; settings: for MIC: M. abscessus subspecies bolletii
# [13] = system: M. fortuitum ATCC 6841; experiment: MIC, anti-mycobacterial profiling; type: cell-based, Mycobacterium fortuitum; settings: for MIC: mean of two experiments
# [14] = system: M. simiae; experiment: MIC, Table 9; type: cell-based, Mycobacterium simiae
# [15] = Mycobacteroides abscessus, ATCC19977, M. abscessus ATCC 19977, 90% growth inhibition, read-out: WT Mab MIC
# [16] = Mycobacteroides abscessus, ATCC19977, M. abscessus subsp. abscessus ATCC 19977, mean of two experiments, read-out: MIC
# [17] = Mycobacteroides abscessus, 120 h
# [18] = Mycobacterium simiae, ATCC25275
# [19] = Mycolicibacterium fortuitum, ATCC6841
smiles,measurement,setting,value
"CO[C@H]1/C=C/O[C@@]2(C)Oc3c(C)c(O)c4c(c3C2=O)C2=NC3(CCN(CC(C)C)CC3)NC2=C(NC(=O)/C(C)=C/C=C/[C@H](C)[C@H](O)[C@@H](C)[C@@H](O)[C@@H](C)[C@H](OC(=O)c2cccnc2)[C@@H]1C)C4=O [5m, 25-O-(3-pyridinecarbonyl)-25-O-desacetyrifabutin]",fold improvement,"[1]; 5m vs rifabutin, subspecies abscessus",30
same,MIC,[1],0.05 µM
same,fold improvement,"[2]; 5m vs rifabutin, subspecies massilense",8
same,MIC,[2],0.04 µM
same,Fold improvement (RFB-5m vs RFB),[3],0.8
same,MIC,[3],0.06 µM
same,MIC,[4],0.01 µM
same,fold improvement,[4]; 5m vs rifabutin,58
same,MIC,[5],0.01 µM
same,fold improvement,[5]; 5m vs rifabutin,60
same,Mab 19977 MIC,[6]; 90% inhibition of bacterial growth,0.025 µM
same,MIC,"[6]; M. abscessus ATCC 19977, 90% growth inhibition, read-out: WT Mab MIC",0.024 µM
same,Fold improvement (RFB-5m vs RFB),[6]; M. abscessus subsp. abscessus ATCC 19977,55
same,MIC,"[6]; M. abscessus subsp. abscessus ATCC 19977, mean of two experiments, read-out: MIC",0.02 µM
same,MIC,"[6]; PK tables 2 and 8, read-out: WT MIC",0.024 µM
same,MIC ratio,[6],0.9
same,Fold improvement (RFB-5m vs RFB),[7],31
same,MIC,[7],0.07 µM
same,Fold improvement (RFB-5m vs RFB),[8],12
same,MIC,[8],0.05 µM
same,MBC,[9],0.16 µM
same,Fold improvement (RFB-5m vs RFB),[10],95
same,MIC,[10],0.2 µM
same,fold increase in the unbound fraction in plasma,[11]; plasma,at least 100 fold
same,fold improvement,"[12]; 5m vs rifabutin, subspecies bolletii",40
same,MIC,[12],0.03 µM
same,Fold improvement (RFB-5m vs RFB),[13],60
same,MIC,[13],0.02 µM
same,MIC,[14],0.18 µM
same,fold improvement,[14]; 5m vs rifabutin,56
"CC[C@H]1OC(=O)[C@H](C)[C@@H](O[C@H]2C[C@@](C)(OC)[C@@H](O)[C@H](C)O2)[C@H](C)[C@@H](O[C@@H]2O[C@H](C)C[C@H](N(C)C)[C@H]2O)[C@](C)(OC)C[C@@H](C)C(=O)[C@H](C)[C@@H](O)[C@]1(C)O [clarithromycin, reference compound]",MIC,[3]; CCUG50989T,0.8 µM
same,MIC,[6]; [15],1.45 µM
same,MIC,[6]; [16],1.5 µM
same,MIC ratio,[6],0.7
same,MIC,[7]; Mycobacteroides abscessus,4.3 µM
same,MIC,[8]; Mycobacteroides abscessus,1.1 µM
same,MBC,[9]; [17],2 µM
same,MIC,[10]; [18],12 µM
same,MIC,[13]; [19],3.2 µM
"CO[C@H]1/C=C/O[C@@]2(C)Oc3c(C)c(O)c4c(c3C2=O)C2=NC3(CCN(CC(C)C)CC3)NC2=C(NC(=O)/C(C)=C\C=C\[C@H](C)[C@H](O)[C@@H](C)[C@@H](O)[C@@H](C)[C@H](OC(C)=O)[C@@H]1C)C4=O [rifabutin, reference compound]",MIC,[1]; Mycobacteroides abscessus,1.5 µM
same,MIC,[2]; Mycobacteroides abscessus,0.3 µM
same,MIC,[3]; CCUG50989T,0.05 µM
same,MIC,[4]; Mycobacteroides chelonae,0.58 µM
same,MIC,[5]; Mycolicibacterium fortuitum,0.6 µM
same,MIC,[6]; [15],1.15 µM
same,MIC,[6]; [16],1.1 µM
same,MIC,"[6]; Mycobacteroides abscessus, ATCC19977, PK tables 2 and 8, read-out: WT MIC",1.15 µM
same,MIC ratio,[6],39.3
same,MIC,[7]; Mycobacteroides abscessus,2.2 µM
same,MIC,[8]; Mycobacteroides abscessus,0.6 µM
same,MBC,[9]; [17],5 µM
same,MIC,[10]; [18],19 µM
same,ƒu,"[11]; 4 h, 10000 ng/mL",4.5%
same,"fraction unbound at 4 h, 10000 ng/mL",[11]; plasma,0.0376
same,"plasma unbound (ƒu, %)","[11]; plasma, 4 h, 10000 ng/mL",3.8%
same,unbound fraction,"[11]; plasma, 4 h, 10000 ng/mL",3.76%
same,MIC,[12]; Mycobacteroides abscessus,1.2 µM
same,MIC,[13]; [19],1.2 µM
same,MIC,[14]; Mycobacterium simiae,10 µM
